Results taken from patent US8101171B2, “Modulators of the development of mychorrizal fungi with arbuscules, and uses thereof” (priority 2004, dated 2012).
Marks after values point to notes of the source that are not given here.

Experiments:
[1] = tested on: Gigaspora rosea; assay: Oxygraph measurement of cell respiration of Gigaspora rosea; type: cell-based; conditions: for % stimulation (respiration, average of 3 tests): GR7 0.1 μM final
Description: The control is carried out using 10 μl of methanol/water (v/v) per ml of medium.
Two independent series of experiments were carried out, after 4 hours' stimulation (series 1) and after 5½ hours' stimulation (series 2).
For each, the values recorded correspond to the averages of 3 tests.

[2] = tested on: Gigaspora rosea spores; assay: Stimulation of hypha branching and elongation of Gigaspora rosea by GR7; type: cell-based
Description: Gigaspora rosea spores are germinated in gelosed medium M for 5 days at 30° C. and in an atmosphere enriched with 2% CO2. 10 μl of test agent solution are then added to the medium by introduction into a well hollowed out in the gelose, starting from a solution having a concentration of test agent varying from 10^−5 to 10^−11 M. The controls receive only the solvent for the test agents (10 μl of 50% methanol) under the same conditions.
The apexes formed are counted after 48 hours' treatment. In addition, the elongation activity is evaluated by measuring the number of cm formed before and after treatment. Two series of experiments, with different concentrations of GR7, were carried out.

[3] = tested on: Medicago truncatula / Gigaspora rosea; assay: In vitro mycorrhization of Medicago truncatula by Gigaspora rosea (points of contact between fungus and roots); type: in vivo; conditions: GR7 0.1 μM in medium M, 3 weeks, 8 plants; control (methanol) 2.2; P = 0.02 Mann-Whitney
Description: Measurements of the number of points of contact established between the fungus and the roots during in vitro mycorrhization experiments were carried out. Medicago truncatula plants were cultivated in vitro in the presence of Gigaspora rosea spores, on medium M enriched with GR7.
For the tests, medium M prepared as above is enriched with GR7 to give a final concentration of 0.1 μM. The controls are carried out with medium M to which methanol is added to give a final concentration of 0.1%. The medium is poured into square Petri dishes (100×100). Three control dishes and three test dishes are prepared. The Gigaspora rosea spores are pre-germinated in those dishes (25 per dish) in an oven at 30° C., with 2% CO2, for 6 days. The Medicago truncatula seeds are sterilized with Javel water at 8 degrees chlorimetric for 5 minutes. After rinsing with sterile distilled water, they are germinated on a medium composed of bacteriological agar with 1 μM gibberellin. After 24 hours at 4° C., they are transferred into a chamber at 25° C. for 24 hours. Eighteen plantlets so prepared are then distributed randomly in the six experimental dishes containing the spores in the process of germinating. […]
The number of points of contact established between the fungus and the roots is counted plant by plant after observation under a microscope.

[4] = tested on: Glomus intraradices spores; assay: Polarographic measurement of oxygen consumption (cell respiration) of germinating Glomus intraradices spores; type: cell-based; conditions: GR24 0.3 μM final
Description: Polarographic measurements of oxygen consumption were carried out on Glomus intraradices spores in germination, in the presence or absence of GR24.
400 spores in 1 ml of medium M are used per test.
In order to stimulate the spores, there are added to each test 10 μl of a 30 μM solution of GR24 in acetone (1%), namely a final concentration of GR24 of 0.3 μM. The controls receive 10 μl of acetone (1%).
The oxygen consumption is measured using an oxygen electrode, known as a Clark electrode (Hansatech Ltd, Hardwick Industrial, Norfolk, United Kingdom), inserted into a Plexiglass chamber. The oxygen electrode is connected to a recorder calibrated between 0 and 100% with atmospheric oxygen.
The spores are introduced into the chamber, and the temperature is maintained at 30° C. by means of a circulating water bath. The rates of oxygen consumption are read directly from the recorder. The measurements of oxygen consumption are carried out over 15 minutes, after 4 hours' stimulation (series 1) and after 5½ hours' stimulation (series 2).
Two independent series of experiments were carried out. For each, the recorded values correspond to the average of 3 tests.
The increase in oxygen consumption is expressed as a percentage relative to that of the control, treated with acetone.

[5] = tested on: Gigaspora rosea spores; assay: Stimulation of the branching of the hyphae of Gigaspora rosea by GR24 (newly formed apexes); type: cell-based
Source text: The stimulated branching of the hyphae (appearance of new apexes) is the test currently employed to evaluate the stimulating activity of various effectors on endomycorrhizal fungi of the genus Gigaspora. This phenomenon occurs naturally close to the roots of host plants, as well as under the action of root exudates, and is considered to be a preparatory phase to the establishment of symbiosis (Buée et al., Molecular Plant-Microbe Interaction, 2000, 13:693-698). This increase in branching is the result of stimulation of the fungus metabolism and leads to an increase in the points of contact between the fungus and the roots of the plant. Any increase in the branching of the hyphae of the fungus increases mycorrhization.
Measurements of branching (expressed as the number of apexes appearing after stimulation) of the germinative tubes of Gigaspora rosea were carried out in the presence of various concentrations of GR24.
To that end, Gigaspora rosea spores are germinated in gelosed medium M (medium M containing 0.4% (w/v) Phytagel®—SIGMA, France) for 5 days at 30° C. and in an atmosphere enriched with 2% CO2. 10 μl of test agents (in concentrations varying from 10^−8 to 10^−15 M) in solution in 50% methanol are then added to the medium by introduction into a well hollowed out in the gelose.
The controls receive the solvent for the test molecules (10 μl of 50% methanol) under the same conditions.
48 hours after treatment, the apexes formed above the stimulation zone are counted. Two series of experiments with GR24, at different concentrations, were carried out.

[6] = Series 1: after 4 hours' stimulation
[7] = Series 2: after 5½ hours' stimulation
[8] = GR7 10^−5 M, Series 1, relative to control
[9] = GR7 10^−5 M, Series 2, relative to control
[10] = GR7 10^−7 M, Series 1, relative to control
[11] = GR7 10^−7 M, Series 2, relative to control
[12] = GR7 10^−9 M, Series 1, relative to control
[13] = GR7 10^−9 M, Series 2, relative to control
[14] = GR7 10^−11 M, Series 1, relative to control
[15] = GR7 10^−11 M, Series 2, relative to control

CC1=CC(O/C=C2/C(=O)OC3CC=CC23)OC1=O (stereo not drawn) [GR7]
% stimulation (respiration, average of 3 tests) [1, 6]: 24.0%
% stimulation (respiration, average of 3 tests) [1, 7]: 33.6%
Activity on the respiration of Gigaspora rosea ([1]; final concentration 0.1 μM, after 5 hours' stimulation): active
cm newly formed/spore ([2]; GR7 10^−5 M, Series 1): 4.88 cm
Number of newly formed apexes ([2]; GR7 10^−5 M, Series 1, after 48 hours' treatment): 9.3
Branching stimulation ratio [2, 8]: 5.31
Growth stimulation ratio [2, 8]: 4.44
cm newly formed/spore ([2]; GR7 10^−5 M, Series 2): 6.5 cm
Number of newly formed apexes ([2]; GR7 10^−5 M, Series 2, after 48 hours' treatment): 14.25
Branching stimulation ratio [2, 9]: 6.59
Growth stimulation ratio [2, 9]: 2.60
cm newly formed/spore ([2]; GR7 10^−7 M, Series 1): 4.65 cm
Number of newly formed apexes ([2]; GR7 10^−7 M, Series 1, after 48 hours' treatment): 8.75
Branching stimulation ratio [2, 10]: 5
Growth stimulation ratio [2, 10]: 4.23
cm newly formed/spore ([2]; GR7 10^−7 M, Series 2): 5.09 cm
Number of newly formed apexes ([2]; GR7 10^−7 M, Series 2, after 48 hours' treatment): 10.42
Branching stimulation ratio [2, 11]: 4.82
Growth stimulation ratio [2, 11]: 2.04
cm newly formed/spore ([2]; GR7 10^−9 M, Series 1): 2.62 cm
Number of newly formed apexes ([2]; GR7 10^−9 M, Series 1, after 48 hours' treatment): 8
Branching stimulation ratio [2, 12]: 4.57
Growth stimulation ratio [2, 12]: 2.38
cm newly formed/spore ([2]; GR7 10^−9 M, Series 2): 4.99 cm
Number of newly formed apexes ([2]; GR7 10^−9 M, Series 2, after 48 hours' treatment): 6.16
Branching stimulation ratio [2, 13]: 2.85
Growth stimulation ratio [2, 13]: 2.00
cm newly formed/spore ([2]; GR7 10^−11 M, Series 1): 2.65 cm
Number of newly formed apexes ([2]; GR7 10^−11 M, Series 1, after 48 hours' treatment): 5.16
Branching stimulation ratio [2, 14]: 2.94
Growth stimulation ratio [2, 14]: 2.41
cm newly formed/spore ([2]; GR7 10^−11 M, Series 2): 2.23 cm
Number of newly formed apexes ([2]; GR7 10^−11 M, Series 2, after 48 hours' treatment): 2.66
Branching stimulation ratio [2, 15]: 1.23
Growth stimulation ratio [2, 15]: 0.89
Activity on branching (number of newly formed apexes) ([2]; doses of the nanomolar order): significantly active
Activity on cell elongation ([2]; doses of the nanomolar order): significantly active
Average points of contact (fungus-roots, per plant) [3]: 7.75*

CC1=CC(O/C=C2/C(=O)OC3c4ccccc4CC23)OC1=O (stereo not drawn) [GR24]
% stimulation (increase in oxygen consumption relative to control, average of 3 tests) [4, 6]: 29.0%
% stimulation (increase in oxygen consumption relative to control, average of 3 tests) [4, 7]: 76.6%
Apex/spore ([5]; GR24 10^−8 M, Series 1, 48 hours after treatment): 16.3
Number of newly formed apexes ([5]; GR24 10^−8 M, Series 1, 48 hours after treatment, 4 spores): 65
Stimulation factor ([5]; GR24 10^−8 M, Series 1, relative to control): 5.4
Apex/spore ([5]; GR24 10^−8 M, Series 2, 48 hours after treatment): 14.0
Number of newly formed apexes ([5]; GR24 10^−8 M, Series 2, 48 hours after treatment, 1 spore): 14
Stimulation factor ([5]; GR24 10^−8 M, Series 2, relative to control): 4.0
Apex/spore ([5]; GR24 10^−10 M, Series 1, 48 hours after treatment): 15.0
Number of newly formed apexes ([5]; GR24 10^−10 M, Series 1, 48 hours after treatment, 3 spores): 45
Stimulation factor ([5]; GR24 10^−10 M, Series 1, relative to control): 5.0
Apex/spore ([5]; GR24 10^−10 M, Series 2, 48 hours after treatment): 13.3
Number of newly formed apexes ([5]; GR24 10^−10 M, Series 2, 48 hours after treatment, 3 spores): 40
Stimulation factor ([5]; GR24 10^−10 M, Series 2, relative to control): 3.8
Apex/spore ([5]; GR24 10^−12 M, Series 1, 48 hours after treatment): 9.0
Number of newly formed apexes ([5]; GR24 10^−12 M, Series 1, 48 hours after treatment, 4 spores): 36
Stimulation factor ([5]; GR24 10^−12 M, Series 1, relative to control): 3.0
Apex/spore ([5]; GR24 10^−12 M, Series 2, 48 hours after treatment): 8.5
Number of newly formed apexes ([5]; GR24 10^−12 M, Series 2, 48 hours after treatment, 4 spores): 34
Stimulation factor ([5]; GR24 10^−12 M, Series 2, relative to control): 2.4
Apex/spore ([5]; GR24 10^−15 M, Series 1, 48 hours after treatment): 3.8
Number of newly formed apexes ([5]; GR24 10^−15 M, Series 1, 48 hours after treatment, 4 spores): 15
Stimulation factor ([5]; GR24 10^−15 M, Series 1, relative to control): 1.3
Apex/spore ([5]; GR24 10^−15 M, Series 2, 48 hours after treatment): 8.5
Number of newly formed apexes ([5]; GR24 10^−15 M, Series 2, 48 hours after treatment, 2 spores): 17
Stimulation factor ([5]; GR24 10^−15 M, Series 2, relative to control): 2.4
Stimulating effect on branching ([5]; doses lower than picomolar): a clear stimulating effect is still observed
Stimulation of branching (factor) ([5]; submicromolar doses of GR24): 5
